According to ChEMBL document CHEMBL4354805, “Discovery of MK-8719, a Potent O-GlcNAcase Inhibitor as a Potential Treatment for Tauopathies” (J Med Chem, 2019):

Assays:
[1] = Drug excretion in rat urine at 10 mg/kg, po; type: ADME, organism-based; conditions: read-out: Drug excretion
[2] = Drug excretion in rat bile at 10 mg/kg, po; type: ADME, organism-based; conditions: read-out: Drug excretion
[3] = Drug excretion in rat feces at 10 mg/kg, po; type: ADME, organism-based; conditions: faeces, read-out: Drug excretion
[4] = Drug excretion in rat cage at 10 mg/kg, po; type: ADME, organism-based; conditions: read-out: Drug excretion
[5] = Drug excretion in rat at 10 mg/kg, po; type: ADME, organism-based; conditions: in vivo, read-out: Drug excretion
[6] = Drug excretion in dog urine at 3 mg/kg, po; type: ADME, organism-based, Canis lupus familiaris; conditions: read-out: Drug excretion
[7] = Drug excretion in dog bile at 3 mg/kg, po; type: ADME, organism-based, Canis lupus familiaris; conditions: read-out: Drug excretion
[8] = Drug excretion in dog cage at 3 mg/kg, po; type: ADME, organism-based, Canis lupus familiaris; conditions: read-out: Drug excretion
[9] = Drug excretion in dog at 3 mg/kg, po; type: ADME, organism-based, Canis lupus familiaris; conditions: in vivo, read-out: Drug excretion
[10] = Fraction unbound in human plasma at 2.5 uM by equilibrium dialysis; type: ADME, cell-free
Protein O-GlcNAcase [11] = target: T1, Protein O-GlcNAcase (Homo sapiens, UniProt O60502); test: Inhibition of recombinant human OGA
T1 sequence (O60502 whole entry): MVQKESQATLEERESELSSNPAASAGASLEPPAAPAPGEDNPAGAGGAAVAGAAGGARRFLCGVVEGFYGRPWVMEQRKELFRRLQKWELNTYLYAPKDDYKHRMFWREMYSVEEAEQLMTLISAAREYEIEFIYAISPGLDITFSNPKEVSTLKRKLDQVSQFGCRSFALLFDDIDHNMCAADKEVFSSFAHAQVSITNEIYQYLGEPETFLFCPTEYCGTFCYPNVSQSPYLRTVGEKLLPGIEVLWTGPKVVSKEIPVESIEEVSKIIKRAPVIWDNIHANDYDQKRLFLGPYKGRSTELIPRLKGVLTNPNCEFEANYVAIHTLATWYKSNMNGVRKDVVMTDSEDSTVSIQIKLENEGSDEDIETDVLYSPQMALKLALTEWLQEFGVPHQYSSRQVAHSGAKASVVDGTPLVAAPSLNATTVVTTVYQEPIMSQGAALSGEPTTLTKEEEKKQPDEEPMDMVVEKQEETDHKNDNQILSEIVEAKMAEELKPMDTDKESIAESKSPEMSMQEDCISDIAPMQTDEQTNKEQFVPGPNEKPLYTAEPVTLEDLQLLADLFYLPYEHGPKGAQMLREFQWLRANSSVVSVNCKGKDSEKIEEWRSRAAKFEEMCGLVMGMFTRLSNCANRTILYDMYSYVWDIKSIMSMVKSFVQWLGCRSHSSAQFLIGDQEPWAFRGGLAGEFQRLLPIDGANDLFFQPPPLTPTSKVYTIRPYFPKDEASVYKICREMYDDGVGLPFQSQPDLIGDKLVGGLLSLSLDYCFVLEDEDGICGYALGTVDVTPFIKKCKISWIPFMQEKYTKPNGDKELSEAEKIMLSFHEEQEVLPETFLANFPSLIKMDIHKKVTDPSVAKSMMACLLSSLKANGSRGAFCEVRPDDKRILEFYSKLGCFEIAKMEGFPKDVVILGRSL

Protein O-GlcNAcase [12] = target: T2, Protein O-GlcNAcase (Rattus norvegicus, UniProt Q8VIJ5); test: Inhibition of OGA in rat PC12 cells assessed as OGlcNAcylated protein level incubated for 24 hrs by ELISA; type: cell-based
T2 sequence (Q8VIJ5 whole entry): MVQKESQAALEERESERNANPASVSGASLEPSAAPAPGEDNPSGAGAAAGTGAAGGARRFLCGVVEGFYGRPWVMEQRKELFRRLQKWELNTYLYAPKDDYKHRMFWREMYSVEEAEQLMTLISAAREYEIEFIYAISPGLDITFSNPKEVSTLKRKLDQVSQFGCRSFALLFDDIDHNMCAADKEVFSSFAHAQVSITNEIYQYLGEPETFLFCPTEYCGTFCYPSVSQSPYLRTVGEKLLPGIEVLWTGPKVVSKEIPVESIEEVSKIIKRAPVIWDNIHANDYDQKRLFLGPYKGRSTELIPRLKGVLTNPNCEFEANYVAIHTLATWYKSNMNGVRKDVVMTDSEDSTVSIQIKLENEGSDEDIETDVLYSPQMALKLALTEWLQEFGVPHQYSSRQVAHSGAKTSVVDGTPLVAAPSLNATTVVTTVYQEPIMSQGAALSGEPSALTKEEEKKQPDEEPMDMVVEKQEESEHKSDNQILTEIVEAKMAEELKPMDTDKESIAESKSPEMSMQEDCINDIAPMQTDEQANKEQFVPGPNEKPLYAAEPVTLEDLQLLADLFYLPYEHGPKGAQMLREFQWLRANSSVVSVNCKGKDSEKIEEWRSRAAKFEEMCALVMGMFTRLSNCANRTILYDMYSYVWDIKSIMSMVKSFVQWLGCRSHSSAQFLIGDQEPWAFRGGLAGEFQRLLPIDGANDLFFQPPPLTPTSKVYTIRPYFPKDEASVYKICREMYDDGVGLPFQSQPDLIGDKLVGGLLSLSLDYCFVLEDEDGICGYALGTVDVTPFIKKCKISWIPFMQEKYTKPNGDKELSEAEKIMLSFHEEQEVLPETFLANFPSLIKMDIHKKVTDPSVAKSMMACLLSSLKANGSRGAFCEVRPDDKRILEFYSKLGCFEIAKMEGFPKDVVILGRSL

[13] = target: T3, Beta-hexosaminidase subunit beta (Homo sapiens, UniProt P07686); test: Inhibition of human beta hexosaminidase assessed as inhibitory constant using 4-methylumbelliferyl N-acetyl-beta-D-glucosaminide dihydrate as substrate measured every 60 sec for 45 mins by fluorescence spectrophotometry
T3 sequence (P07686 whole entry): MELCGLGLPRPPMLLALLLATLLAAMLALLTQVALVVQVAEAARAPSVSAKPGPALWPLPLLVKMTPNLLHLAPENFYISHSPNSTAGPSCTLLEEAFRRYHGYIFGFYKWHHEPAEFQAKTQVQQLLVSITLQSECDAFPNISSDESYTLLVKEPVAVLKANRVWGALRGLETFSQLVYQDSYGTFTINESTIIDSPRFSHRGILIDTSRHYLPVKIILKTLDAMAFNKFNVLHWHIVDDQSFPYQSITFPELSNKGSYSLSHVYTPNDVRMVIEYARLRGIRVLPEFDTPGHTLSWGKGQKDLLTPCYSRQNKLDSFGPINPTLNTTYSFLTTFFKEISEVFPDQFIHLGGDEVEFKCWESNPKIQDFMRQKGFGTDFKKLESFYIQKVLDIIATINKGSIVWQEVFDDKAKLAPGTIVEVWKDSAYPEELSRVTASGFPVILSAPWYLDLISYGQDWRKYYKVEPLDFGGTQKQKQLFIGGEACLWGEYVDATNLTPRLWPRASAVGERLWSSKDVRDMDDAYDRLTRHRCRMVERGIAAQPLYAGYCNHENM

[14] = Fraction unbound in Wistar Han rat plasma at 2.5 uM by equilibrium dialysis; type: ADME, cell-free
[15] = AUCN in Wistar Han rat at 3 mg/kg, po; type: ADME, organism-based; conditions: in vivo
[16] = Clearance in Wistar Han rat at 1 mg/kg, iv; type: ADME, organism-based; conditions: in vivo
[17] = Half life in Wistar Han rat at 1 mg/kg, iv; type: ADME, organism-based; conditions: in vivo
[18] = Volume of distribution at steady state in Wistar Han rat at 1 mg/kg, iv or 3 mg/kg, po; type: ADME, organism-based; conditions: in vivo, read-out: Vdss
[19] = Oral bioavailability in Wistar Han rat at 3 mg/kg; type: ADME, organism-based; conditions: in vivo
Rattus norvegicus [20] = test: Elevation of O-protein in rat brain at 3 mg/kg, po measured after 8 hrs relative to control; type: functional
Rattus norvegicus [21] = test: Elevation of O-protein in rat brain at 3 mg/kg, po measured after 24 hrs relative to control; type: functional
[22] = Drug uptake in rat brain at 3 mg/kg, po measured after 8 hrs; type: ADME, organism-based; conditions: in vivo
[23] = Drug uptake in rat brain at 3 mg/kg, po measured after 24 hrs; type: ADME, organism-based; conditions: in vivo
[24] = Ratio of drug uptake in rat brain to plasma at 3 mg/kg, po measured after 8 hrs; type: ADME, organism-based; conditions: read-out: BPR
[25] = Ratio of drug uptake in rat brain to plasma at 3 mg/kg, po measured after 24 hrs; type: ADME, organism-based; conditions: read-out: BPR
[26] = Tmax in rat brain at 3 mg/kg, po measured upto 24 hrs; type: ADME, organism-based
[27] = AUC (0 to 24 hrs) in rat brain at 3 mg/kg, po measured upto 24 hrs; type: ADME, organism-based; set-up: dose 3 mg/kg, time < 24 hr, route oral; conditions: in vivo
Rattus norvegicus [28] = test: Increase in O-protein AUC in rat brain at 3 mg/kg, po measured upto 24 hrs; type: ADME, organism-based; conditions: in vivo
MDR1 = test: Apparent permeability in pig LLC-PK1 cells transfected with MDR1; type: ADME, cell-based, Sus scrofa

| SMILES | fraction unbound at 2.5 µM [10] | Ki (Protein O-GlcNAcase [11]) [µM] | EC50 (Protein O-GlcNAcase [12]) [µM] | Ki [13] [µM] | fraction unbound at 2.5 µM [14] | AUC/dose [15] [µM·kg·h/mg] | clearance [16] [mL/min/kg] | half-life [17] [h] | Vd [18] [L/kg] | bioavailability [19] [%] | also measured |
| --- | --- | --- | --- | --- | --- | --- | --- | --- | --- | --- | --- |
| [3H][C@@]1(O)[C@@H](C(F)F)O[C@@H]2SC(NCC)=N[C@@H]2[C@H]1O |  |  |  |  |  |  |  |  |  |  | dose excreted [1]: 75%; dose excreted [2]: 17%; dose excreted [3]: 0.5%; dose excreted [4]: 3%; dose excreted [5]: 96%; dose excreted [6]: 79%; dose excreted [7]: 8%; dose excreted [8]: 1%; dose excreted [9]: 88% |
| CNC1=N[C@@H]2[C@H](F)[C@H](O)[C@@H](CO)O[C@@H]2S1 | 0.84 | 0.00053 | 0.0106 | > 10 | 0.96 | 1.43 | 36.8 | 1.27 | 2 | 70.4 | fold change (FC) (Rattus norvegicus [20]): 2.13; fold change (FC) (Rattus norvegicus [21]): 1.45; Drug uptake [22]: 0.099 nmol/g; Drug uptake [23]: 0.074 nmol/g; Kp at 8 h [24]: 1.67; Kp at 24 h [25]: ≥ 29.5; Tmax [26]: 8 h; AUC [27]: 1.963 nM·h/g; fold change (FC) (Rattus norvegicus [28]): 18.44 |
| CNC1=N[C@@H]2[C@H](F)[C@H](O)[C@@H](CF)O[C@@H]2S1 | > 0.99 | 0.035 | 0.328 | > 10 | > 0.99 | 2.96 | 14.4 | 1.18 | 0.85 | 60.5 | Papp (MDR1): 26 ×10⁻⁶ cm/s |
